Holding throughout (assay): inhibition of tumour cell growth, NCI panel, 48 h
Assay [1] deals with SNB-19 CNS.
For assay [2], the system named is ACHN renal.
Assay [3] deals with SF-295 CNS.
Assay [4] has as its system SF-268 CNS.
For assay [5], the system named is HOP-62 NSCLC.
The test system of assay [6] is SW-620 colon.
Assay [7] deals with RPMI-8226 leukemia.
The test system of assay [8] is SK-MEL-5 melanoma.
Assay [9] concerns HOP-92 NSCLC.
The subject of assay [10] is RXF 393 renal.
Assay [11] deals with HCT-15 colon.
The test system of assay [12] is UACC-257 melanoma.
Assay [13] concerns EKVX NSCLC.
Assay [14] deals with NCI-H226 lung.
The test system of assay [15] is 786-0 renal.
For assay [16], the system named is OVCAR-3 ovarian.
The test system of assay [17] is SR leukemia.
Assay [18] deals with UACC-62 melanoma.
The test system of assay [19] is MDA-MB-231 breast.

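96-well plates; 48 h exposure; 5 concentrations. Endpoints by linear interpolation between flanking doses. Not reached: highest tested concentration assigned. The concentration for full growth arrest is given as TGI.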 A value given as a limit tells only on which side of the number the result lay.

On to `CCOC(=O)CC(NCc1ccc(N=Cc2nc3ccc(C(F)(F)F)cc3nc2-c2ccccc2)cc1)C(=O)OCC` (stereo not drawn), for which the TGI in assay [1] was above 69.8 µM; in assay [2] it was above 100 µM; in assay [3], above 100 µM; in assay [4] it was above 100 µM; in assay [5] it was above 81.7 µM; in [6], above 100 µM. For the same compound, the TGI in assay [7] is above 100 µM; in assay [8], above 100 µM; in assay [9], above 100 µM; in assay [10] it was 56 µM; in assay [11], above 100 µM; in [12], above 100 µM. Also, the TGI in [13] is above 100 µM; in assay [14], above 100 µM; in assay [15] it was above 100 µM; in assay [16], above 100 µM; in [17], above 100 µM; in assay [18], 68.3 µM.

Take `O=C1OCCC[C@H]2O[C@@H](COCc3ccccc3)C[C@@H]12`: the TGI in [1], in [2], in assay [3], in [4], in assay [5] and in assay [6] was above 100 µM throughout. Further, the TGI in [7], in [8], in [9], in assay [19], in [11] and in assay [12] was above 100 µM in each case. Also, the TGI in assay [14], in assay [15], in assay [16], in assay [17] and in assay [18] was above 100 µM throughout.

Take `Cc1[nH]n(-c2ccccc2)c(=O)c1C(N(CCc1ccccc1)C1=NCC(C)S1)(C(F)(F)F)C(F)(F)F` (stereo not drawn): the TGI is above 100 µM in assay [1]; 79.3 µM in assay [2]; 84.2 µM in assay [3]; above 100 µM in [4]; 87.6 µM in assay [5]; 95.3 µM in [6]. Also, the TGI amounted to 21.5 µM in assay [8]; 58.5 µM in assay [9]; 65.6 µM in assay [19]; 41.1 µM in assay [11]; 56.7 µM in assay [12]; 36.4 µM in [13]. The TGI in [14] was 29.5 µM; in assay [15] it was 34.9 µM; in assay [16], above 100 µM; in assay [17] it was 90.4 µM; in assay [18], 24 µM.

Regarding `CC(=O)O[C@H]1C(=O)[C@@]2(C)C(C(OC(=O)c3ccccc3)[C@]3(O)CC(OC(=O)C(O)C(NC(=O)c4ccccc4)c4cccc(Cl)c4)C(C)=C1C3(C)C)[C@]1(OC(C)=O)CO[C@@H]1C[C@@H]2O` (stereo partly drawn), the TGI in assay [1], in [2], in assay [3], in assay [4], in assay [5] and in assay [6] was above 10 µM each time. Besides, the TGI is 9.49 µM in assay [7]; above 10 µM in assay [8]; above 10 µM in [19]; above 10 µM in assay [11]; above 10 µM in assay [12]; above 10 µM in [13]. For the same compound, the TGI was above 10 µM in assay [14]; above 10 µM in assay [15]; above 10 µM in assay [16]; 6.72 µM in assay [17]; above 10 µM in [18].

For `C[N+]1(C)C[C@@H](O)C[C@@H]1C(=O)[O-]`, the TGI in [1], in [2], in assay [3], in assay [4], in [5] and in assay [6] was above 100 µM in each case. Besides, the TGI in assay [7], in [9], in assay [10], in [11], in [12] and in assay [13] was above 100 µM each time. Moreover, the TGI in assay [14], in assay [15], in assay [16], in assay [17] and in assay [18] was above 100 µM each time.

Consider `Cc1ccc(/C=C2\NC(=S)N(CN3CCCCC3)C2=O)cc1`, for which the TGI in assay [1], in assay [2], in assay [3], in assay [4], in [5] and in assay [6] was above 100 µM throughout. Also, the TGI was above 100 µM in assay [7]; above 100 µM in assay [8]; 94.4 µM in assay [9]; above 100 µM in assay [19]; above 100 µM in assay [11]; above 100 µM in assay [13]. Moreover, the TGI in [14], in assay [15], in assay [16], in [17] and in assay [18] was above 100 µM throughout.

Regarding `CCOC(=O)C1=C(c2ccccc2)N(C(C)=O)Cc2ccccc21`, the TGI was above 100 µM in assay [1]; 66.7 µM in [2]; 37.8 µM in [3]; 64.8 µM in assay [4]; 44.3 µM in assay [5]; above 100 µM in assay [6]. The TGI in assay [7] was 38.7 µM; in assay [8] it was 25.1 µM; in [9], 20.7 µM; in assay [10], 68.2 µM; in assay [11], above 100 µM; in [12] it was 34.6 µM. Further, the TGI in assay [13] was above 100 µM; in assay [14], 50.5 µM; in assay [15], above 100 µM; in [16] it was 43.2 µM; in [17], 41.7 µM; in assay [18], 25.5 µM.

`CCSc1nnc(-c2ccccc2)nc1Cc1ccc(OC)cc1`: the TGI in assay [1], in assay [2], in [3], in [4], in assay [5] and in [6] was above 100 µM in each case. For the same compound, the TGI in assay [7], in [9], in [10], in assay [11], in assay [12] and in assay [13] was above 100 µM in each case. The TGI in assay [14], in [15], in assay [16], in [17] and in assay [18] was above 100 µM throughout.
